{"source": "patent US4069318A", "about": "“N^2 -Alkoxynaphthalenesulfonyl-L-argininamides and the pharmaceutically acceptable salts thereof” (Mitsubishi Chemical Industries Ltd., priority 1974, dated 1978)"}
{"molecular_target": "T1, thrombin (Bos taurus, UniProt P00735)", "T1 construct": "bovine fibrinogen as substrate", "assay": "fibrinogen coagulation time (thrombin-induced)", "type": "biochemical", "details": "bovine fibrinogen, thrombin 5 units/ml, borate saline buffer pH 7.4, 25° C; control 50-55 seconds; read-out: Concentration required to prolong the coagulation time by a factor of two", "protocol": "Immediately after mixing, the reaction mixture was transferred from the ice bath to a bath maintained at 25° C. Coagulation times were taken as the period between the time of transference to the 25° C bath and the time of the first appearance of fibrin threads.", "units": {"IC (2-fold clotting time)": "µM"}}
{"molecule": "COc1cccc2c(S(=O)(=O)N[C@@H](CCCNC(=N)N)C(=O)N(CC(=O)O)Cc3ccccc3)cccc12", "note": "[Sample 18, N^2-(5-methoxy-1-naphthalenesulfonyl)-L-arginyl-N-benzylglycine]", "IC (2-fold clotting time)": 2}
{"tested_on": "not listed separately", "assay": "acute toxicity (LD50) by intraperitoneal administration in mice", "details": "mouse, in vivo, ip, mice (male, 20 g)", "description": "On the other hand, LD50 values for N^2 -dansyl-N-butyl-L-argininamide and N^2 -dansyl-N-methyl-N-butyl-L-argininamide are 75 and 70 milligrams per kilogram, respectively.", "units": {"LD50": "mg/kg"}}
{"molecule": "COc1ccc2cc(S(=O)(=O)N[C@@H](CCCNC(=N)N)C(=O)N(CC(=O)O)Cc3ccccc3)cc(OC)c2c1", "note": "[Sample 10, N^2-(4,6-dimethoxy-2-naphthalenesulfonyl)-L-arginyl-N-benzylglycine]", "LD50": "> 1000"}
{"molecule": "COc1cccc2c(S(=O)(=O)N[C@@H](CCCNC(=N)N)C(=O)N(CC(=O)O)Cc3ccccc3)cccc12", "note": "[Sample 18, N^2-(5-methoxy-1-naphthalenesulfonyl)-L-arginyl-N-benzylglycine]", "LD50": "> 1000"}
{"molecule": "COc1cc2ccc(S(=O)(=O)N[C@@H](CCCNC(=N)N)C(=O)N(CC(=O)O)Cc3ccccc3)cc2cc1OC", "note": "[Sample 2, N^2-(6,7-dimethoxy-2-naphthalenesulfonyl)-L-arginyl-N-benzylglycine]", "LD50": "> 1000"}
{"molecule": "COc1cc2ccc(S(=O)(=O)N[C@@H](CCCNC(=N)N)C(=O)N(CCc3ccccc3)CC(=O)O)cc2cc1OC", "note": "[Sample 6, N^2-(6,7-dimethoxy-2-naphthalenesulfonyl)-L-arginyl-N-phenethylglycine]", "LD50": "> 1500"}
{"molecule": "CCCCN(C)C(=O)[C@H](CCCNC(=N)N)NS(=O)(=O)c1cccc2c(N(C)C)cccc12", "note": "[N^2 -dansyl-N-methyl-N-butyl-L-argininamide, reference compound]", "LD50": 70}
{"molecule": "CCCCNC(=O)[C@H](CCCNC(=N)N)NS(=O)(=O)c1cccc2c(N(C)C)cccc12", "note": "[N^2 -dansyl-N-butyl-L-argininamide, reference compound]", "LD50": 75}
